Test results from US20040014215A1, “Synchronised arabidopsis cell suspensions and uses thereof” (priority 2000, published 2004).

Columns and labels:
CDK-a = experiment: Northern expression analysis after aphidicolin synchronisation of MM1 (maximum signal = 100%); format: cell-based, Arabidopsis thaliana
Description: was analysed following the expression level of known cell cycle regulated genes. Synchronisation was performed as described in Example 2A, with the exception that two 7-day old cultures of the weekly sub-cultured cell suspension (210 ml each) were combined. 40 ml of combined culture was transferred into 200 ml of fresh MSS-medium in each of 10 separate flasks. After incubation for 24 hrs under conditions as described in Example 1, in the presence of 4.16 μg/ml aphidicolin, cells from 5 pooled flasks were washed through a nylon net (mesh size 47 μm) and washed with 2 litre MSS medium and shaken vigorously to remove the aphidicolin. Cells were transferred into a 50 ml plastic tube, washed again with MSS medium and centrifuged at 2500 rpm for 1 min (1075 rcf). Cells were resuspended and combined with the cells from the other 5 flasks similarly washed in a total volume of 300 ml fresh MSS-medium. 30 ml of this cell suspension was then added to 200 ml fresh MSS-medium in each of 10 separate flasks.
1) 25 ml for Northern blot (transferred into 50 ml plastic tube, centrifuged at 2500 rpm for 1 min, the supernatant discarded, and the cell pellet shock-frozen in liquid nitrogen before storing in −80° C. freezer)
Samples were collected at the time point indicated (time of removal of aphidicolin equals time point 0 hrs) and were analysed for expression of the following genes by Northern blot:
CDK-a (also called Cdc2a/CDK2a: Accession no. ATCDC2AP)
For each probe the maximum hybridisation signal obtained was defined as 100%.

[1] = tested on: Arabidopsis cell suspension culture; settings: phosphate starvation 32 hours then aphidicolin, cited from earlier work
[2] = 0 hrs after aphidicolin removal
[3] = 2 hrs after aphidicolin removal
[4] = 4 hrs after aphidicolin removal
[5] = 6 hrs after aphidicolin removal
[6] = 8 hrs after aphidicolin removal
[7] = 10 hrs after aphidicolin removal
[8] = 12 hrs after aphidicolin removal
[9] = 14 hrs after aphidicolin removal
[10] = 16 hrs after aphidicolin removal
[11] = 18 hrs after aphidicolin removal
[12] = 20 hrs after aphidicolin removal
[13] = 22 hrs after aphidicolin removal
[14] = 24 hrs after aphidicolin removal
[15] = 26 hrs after aphidicolin removal
[16] = 28 hrs after aphidicolin removal
[17] = 30 hrs after aphidicolin removal

C[C@@]1(CO)[C@H](O)CC[C@@]2(C)[C@H]1CC[C@H]1C[C@@H]3C[C@@]12CC[C@]3(O)CO [aphidicolin]
CDK-a % (CDK-a; [2]): 17.71%
CDK-a Band intensity (CDK-a; [2]): 321
CDK-a % (CDK-a; [3]): 37.87%
CDK-a Band intensity (CDK-a; [3]): 687
CDK-a % (CDK-a; [4]): 45.09%
CDK-a Band intensity (CDK-a; [4]): 818
CDK-a % (CDK-a; [5]): 66.22%
CDK-a Band intensity (CDK-a; [5]): 1202
CDK-a % (CDK-a; [6]): 58.06%
CDK-a Band intensity (CDK-a; [6]): 1054
CDK-a % (CDK-a; [7]): 77.44%
CDK-a Band intensity (CDK-a; [7]): 1406
CDK-a % (CDK-a; [8]): 80.20%
CDK-a Band intensity (CDK-a; [8]): 1456
CDK-a % (CDK-a; [9]): 92.43%
CDK-a Band intensity (CDK-a; [9]): 1678
CDK-a % (CDK-a; [10]): 79.03%
CDK-a Band intensity (CDK-a; [10]): 1435
CDK-a % (CDK-a; [11]): 100.0%
CDK-a Band intensity (CDK-a; [11]): 1816
CDK-a % (CDK-a; [12]): 89.25%
CDK-a Band intensity (CDK-a; [12]): 1620
CDK-a % (CDK-a; [13]): 53.55%
CDK-a Band intensity (CDK-a; [13]): 972
CDK-a % (CDK-a; [14]): 34.25%
CDK-a Band intensity (CDK-a; [14]): 621
CDK-a % (CDK-a; [15]): 40.96%
CDK-a Band intensity (CDK-a; [15]): 743
CDK-a % (CDK-a; [16]): 36.32%
CDK-a Band intensity (CDK-a; [16]): 659
CDK-a % (CDK-a; [17]): 29.30%
CDK-a Band intensity (CDK-a; [17]): 532
cells in S-phase ([1]; 2 h after release of block): 50 to 60%
cells in G2 phase ([1]; after 8 h): 50%
